Results: patent US20160250213A1, “FORMULATIONS OF AZAINDOLE COMPOUNDS” (priority 2013, published 2016)
Where a name gives a salt, the structure may show the parent alone. Read-outs that look alike come from different tables or passages of the source. Marks after values point to notes of the source that are not given here.

How the values were obtained:
[1] = ambient temperature
physchem = settings: water, thermodynamic from solid
[2] = Water activity tests: competition slurry in IPA/water mixtures; type: physicochemical
influenza A = system: influenza A; set-up: species or system mice; settings: mouse, in vivo
[3] = system: Influenza A/Victoria/3/75 (H3N2) virus; type: in vivo, BALB/c mice; settings: 10 mg/kg p.o. twice a day for 10 days starting 2 hours prior to virus exposure
influenza A virus = type: in vivo, mice
A/Puerto Rico/8/34 = type: cell-based, influenza A virus
[4] = system: Influenza A/California/04/2009 (pndH1N1) virus; type: in vivo, BALB/c mice; settings: 10 mg/kg p.o. twice a day for 10 days starting 2 hours prior to virus exposure
[5] = solvent Acetonitrile, listed as Form A HCl salt of Compound (1)
[6] = solvent Chloroform, listed as Form A HCl salt of Compound (1)
[7] = solvent Dimethylsulfoxide, listed as Form A HCl salt of Compound (1)
[8] = solvent Formic acid, listed as Form A HCl salt of Compound (1)

For O=C(O)[C@H]1C2CCC(CC2)C1Nc1nc(-c2c[nH]c3ncc(F)cc23)ncc1F (stereo partly shown) [Form A of HCl salt of Compound (1).½H2O], the Sol. ([1]; solvent 1,1,2-Trichloroethane, listed as Form A HCl salt of Compound (1)) was less than 0.1 mg/mL, the Sol. ([1]; solvent 1,2-Dichloroethane, listed as Form A HCl salt of Compound (1)) was 1.7 mg/mL and the Sol. ([1]; solvent 1,2-Dimethoxyethane, listed as Form A HCl salt of Compound (1)) was 0.5 mg/mL. The Sol. ([1]; solvent 1,4-Dioxane, listed as Form A HCl salt of Compound (1)) was 0.4 mg/mL, the Sol. ([1]; solvent 1-Butanol, listed as Form A HCl salt of Compound (1)) was 2.9 mg/mL and the Sol. ([1]; solvent 1-Pentanol, listed as Form A HCl salt of Compound (1)) was 3.3 mg/mL. The Sol. ([1]; solvent 1-Propanol, listed as Form A HCl salt of Compound (1)) was 10.7 mg/mL, the Sol. ([1]; solvent 2-Butanol, listed as Form A HCl salt of Compound (1)) was 2.9 mg/mL and the Sol. ([1]; solvent 2-Methoxyethanol, listed as Form A HCl salt of Compound (1)) was 34.1 mg/mL. For the same molecule, the Sol. ([1]; solvent 2-Methy-1-propanol, listed as Form A HCl salt of Compound (1)) was 3.5 mg/mL, the Sol. ([1]; solvent 2-Propanol, listed as Form A HCl salt of Compound (1)) was 3.3 mg/mL and the Sol. ([1]; solvent 3-Methyl-1-butanol, listed as Form A HCl salt of Compound (1)) was 3.2 mg/mL. The Sol. ([1]; solvent Acetone, listed as Form A HCl salt of Compound (1)) was 1.5 mg/mL, the “Resulting Form” value [1, 5] was “Solvate” and the Sol. [1, 5] was 0.5 mg/mL. For the same molecule, the Sol. ([1]; solvent Anisole, listed as Form A HCl salt of Compound (1)) was less than 0.1 mg/mL, the Sol. ([1]; solvent Butyl acetate, listed as Form A HCl salt of Compound (1)) was 0.2 mg/mL and the Sol. ([1]; solvent Chlorobenzene, listed as Form A HCl salt of Compound (1)) was less than 0.1 mg/mL. The “Resulting Form” value [1, 6] was “Solvate”, the Sol. [1, 6] was less than 0.1 mg/mL and the Sol. ([1]; solvent Cumene, listed as Form A HCl salt of Compound (1)) was less than 0.1 mg/mL. The Sol. ([1]; solvent Cyclohexane) was less than 0.1 mg/mL, the Sol. ([1]; solvent Dichloromethane, listed as Form A HCl salt of Compound (1)) was 0.1 mg/mL and the “Resulting Form” value [1, 7] was “Solvate”. For the same molecule, the Sol. [1, 7] was 346.5 mg/mL, the Sol. ([1]; solvent Ethanol, listed as Form A HCl salt of Compound (1)) was 19.9 mg/mL and the Sol. ([1]; solvent Ethyl acetate, listed as Form A HCl salt of Compound (1)) was 0.2 mg/mL. For the same molecule, the Sol. ([1]; solvent Ethyl ether, listed as Form A HCl salt of Compound (1)) was 0.1 mg/mL, the Sol. ([1]; solvent Ethyl formate, listed as Form A HCl salt of Compound (1)) was 0.4 mg/mL and the “Resulting Form” value ([1]; solvent Ethylene glycol) was “Solvate”. The Sol. ([1]; solvent Ethylene glycol, listed as Form A HCl salt of Compound (1)) was 108.1 mg/mL, the “Resulting Form” value [1, 8] was “Solvate” and the Sol. [1, 8] was 214.0 mg/mL. It also gave a Sol. ([1]; solvent Heptane, listed as Form A HCl salt of Compound (1)) of less than 0.1 mg/mL, a Sol. ([1]; solvent Hexane) of less than 0.1 mg/mL and a Sol. ([1]; solvent Isobutyl acetate, listed as Form A HCl salt of Compound (1)) of 0.2 mg/mL. The Sol. ([1]; solvent Isopropyl acetate, listed as Form A HCl salt of Compound (1)) was 0.4 mg/mL, the “Resulting Form” value ([1]; solvent Methanol) was “Solvate” and the Sol. ([1]; solvent Methanol, listed as Form A HCl salt of Compound (1)) was 46.4 mg/mL. The Sol. ([1]; solvent Methyl acetate, listed as Form A HCl salt of Compound (1)) was 0.6 mg/mL, the Sol. ([1]; solvent Methyl tetrahydrofuran, listed as Form A HCl salt of Compound (1)) was 0.7 mg/mL and the Sol. ([1]; solvent Methylbutyl ketone, listed as Form A HCl salt of Compound (1)) was 0.4 mg/mL. It also gave a Sol. ([1]; solvent Methylcyclohexane) of less than 0.1 mg/mL, a Sol. ([1]; solvent Methylethyl ketone, listed as Form A HCl salt of Compound (1)) of 0.5 mg/mL and a Sol. ([1]; solvent Nitromethane, listed as Form A HCl salt of Compound (1)) of less than 0.1 mg/mL. It also gave a Sol. ([1]; solvent Pentane, listed as Form A HCl salt of Compound (1)) of less than 0.1 mg/mL, a Sol. ([1]; solvent Propyl acetate, listed as Form A HCl salt of Compound (1)) of 0.8 mg/mL and a Sol. ([1]; solvent Tetrahydrofuran, listed as Form A HCl salt of Compound (1)) of 0.7 mg/mL. The Sol. ([1]; solvent Tetralin) was less than 0.1 mg/mL, the Sol. ([1]; solvent Toluene, listed as Form A HCl salt of Compound (1)) was less than 0.1 mg/mL and the “stability in solvent systems” value ([1]; solvent systems listed in b317 (chlorobenzene to methyl tetrahydrofuran), 2 weeks) was “stable”. The Sol. ([1]; solvent t-Butylmethylether, listed as Form A HCl salt of Compound (1)) was 0.4 mg/mL, the Sol. ([1]; solvent xylene, listed as Form A HCl salt of Compound (1)) was less than 0.1 mg/mL and the solubility thermodynamic (physchem) was 600 µg/mL. The “form conversion in competition slurry” value [2] was “converted to Form F”.

With CCOC(=O)C1=C[C@@H](OC(CC)CC)[C@H](NC(C)=O)[C@@H](N)C1 [Oseltamivir, reference compound] the “Log10 Reduction vs. Vehicle” value (influenza A) was −0.15 Log10, the “Lung Viral Titer” value (influenza A; 10 mg/kg) was 6.05 Log10 TCID50 and the “MDD ± SD (mean day of death of mice that died on or before day 21)” value [3] was 7.0. The “Mean Lung Parameters (Day 6): Score (hemorrhage, 0 to 4)” value [3] was 1.7 ± 1.1, the “Mean Lung Parameters (Day 6): Virus Titer” value [3] was 7.0 ± 0.3 Log10 CCID50/g and the “Mean Lung Parameters (Day 6): Weight” value [3] was 218 ± 24 mg. The Survivors/Total [3] was 9/10***, the “dosing initiation post infection up to which complete protection is provided” value (influenza A virus; 10 mg/kg BID) was no more than 24 h and the “survival” value (influenza A virus; 10 mg/kg BID, same experiment (prophylactic)) was “survived”. For the same molecule, the “survival” value (influenza A virus; mouse, in vivo) was “survived”, the “C.I. (combination index) values at the 50% effect level” value (A/Puerto Rico/8/34) was 0.58 and the “Mean Lung Parameters (Day 6): Score (hemorrhage, 0 to 4)” value [4] was 1.0. The “Mean Lung Parameters (Day 6): Virus Titer” value [4] was 7.9 Log10 CCID50/g, the “Mean Lung Parameters (Day 6): Weight” value [4] was 178 mg and the Survivors/Total [4] was 10/10***.
